Experimental data taken from patent US20050209299A1, “Inhibition of mixed lineage kinases and uses therefor” (University of Maryland, Baltimore, priority 2004, published 2005).

How the values were obtained:
HeLa cells [1] = experiment: Cell proliferation assay (cell counting, trypan blue); format: cell-based; conditions: CEP-11004 500 nM, up to 72 hours, cell number
Procedure: (§1) Following treatments cells were counted on a hemocytometer following trypsinization and staining with trypan blue (Sigma). Greater than 95% of the cells excluded trypan blue dye. Cell proliferation also was measured using a colony formation assay. […] Following incubation for 8-14 days, cells were fixed for 10 minutes in 4% paraformaldehyde and stained with 0.2% crystal violet (in 20% methanol) for 1-2 minutes. Cells were washed several times with distilled water and colonies formed (at least 40 cells/per colony) were counted.

NIH 3T3 cells = experiment: as above; format: cell-based; conditions: CEP-11004 500 nM, up to 72 hours, cell number
Procedure: as §1

[2] = test system: A549 airway epithelia carcinoma cell; experiment: Colony formation assay; format: cell-based; conditions: varying doses, 14 days, crystal violet
Procedure: as §1

HeLa cells [3] = experiment: FACS analysis of DNA content (cell cycle); format: cell-based
Procedure: (§2) In some experiments, cells were synchronized by double thymidine block as previously described (18-19). Briefly, cells were incubated for 16 hours with 2 mM thymidine in 10% FBS containing DMEM. The excess thymidine was washed off with Hanks Buffered Saline Solution (HBSS) and cells were released back into the cell cycle with complete medium. After 8 hours, cells were treated a second time with 2 mM thymidine in 10% FBS containing DMEM for another 16 hours to arrest cells at the G1/S-phase boundary. Synchronized cells were then washed with HBSS and released back into the cell cycle and harvested at various time points after G1/S release for analysis. Cell cycle analysis was done by fluorescence activated cell sorting (FACS) as described below.
Synchronized cells were trypsinized, washed with PBS, fixed with 3 ml of cold (−20° C.) 70% ethanol, and stored at 4° C. overnight. Cells then were incubated with 100 μg/ml propidium iodide (Sigma) dissolved in 0.2 M Tris, pH 7.5, 20 mM EDTA, 1 mg/ml RNase A (Sigma) for 1 hour at room temperature and diluted with an equal volume of PBS. DNA content was measured by flow cytometry (FACScan Analyzer, BD Biosciences) and was analyzed using the Sync Wizard Model, ModFit LT software (BD Biosciences). […]

HEK293 cells = experiment: FACS analysis of DNA content (cell cycle); format: cell-based; conditions: treated for 20 hours; indicative of arrest in G2 or M-phase
Procedure: Synchronized cells were trypsinized, washed with PBS, fixed with 3 ml of cold (−20° C.) 70% ethanol, and stored at 4° C. overnight. Cells then were incubated with 100 μg/ml propidium iodide (Sigma) dissolved in 0.2 M Tris, pH 7.5, 20 mM EDTA, 1 mg/ml RNase A (Sigma) for 1 hour at room temperature and diluted with an equal volume of PBS. DNA content was measured by flow cytometry (FACScan Analyzer, BD Biosciences) and was analyzed using the Sync Wizard Model, ModFit LT software (BD Biosciences). To determine the percentage of G1, S and G2/M-phase cells, the settings for 2N and 4N peaks were defined within each experiment from the G1/S arrested cells and applied to all samples within a given experiment.

cyclin B1 = experiment: Cyclin B1 immunoblot in synchronized HeLa cells; format: cell-based
Procedure: as §2
For protein analysis, cells were washed twice with cold phosphate buffered saline (PBS), lysed with 300 μl of tissue lysis buffer (TLB) (20 mM Tris-base, pH 7.4, 137 mM NaCl, 2 mM EDTA, 1% Triton X-100, 25 mM β-glycerophosphate, 2 mM sodium pyrophosphate, 10% glycerol, 1 mM sodium orthovanadate, 1 mM phenylmethysulfonyl fluoride (PMSF), and 1 mM benzamidine) and centrifuged at 20,000×g to clarify lysates. Approximately 20 μg of total protein was separated by SDS-PAGE. Proteins were transferred to PVDF membrane (Perkin Elmer Life Sciences; Boston, Mass.), blocked for 1-2 hours with 5% nonfat dry milk in Tris-buffered saline (TBS) (50 mM Tris-base, pH 7.4, 0.15 M NaCl, and 0.1% Tween-20) and incubated with the primary antibodies in TBS containing 1% BSA solution for 1 to 16 hours. Membranes were washed several times in TBS-Tween solution and incubated with HRP conjugated anti-mouse or anti-rabbit antibodies (0.1 μg/ml). Immunoreactivity was detected by enhanced chemiluminescence (ECL; Amersham, Buckinghamshire, England).

Cdc2 = Cdc2 kinase activity (immunoprecipitated, histone substrate) in synchronized HeLa cells; format: cell-based
Procedure: as §2
Cdc2 was immunoprecipitated from cell lysates by incubating with Cdc2 antibody (0.5 μg) for 2 hours on ice. The lysates then were incubated with protein G-sepharose with mixing at 4° C. for an additional 2 hours. The immune-complex was washed with cold kinase buffer and incubated for 30 min at 30° C. with kinase buffer containing 10 μCi γ-^32P ATP, 20 μM cold ATP, and 2.5 μg histone (Type III-SS, Sigma) as a substrate. The reactions were stopped with SDS-PAGE sample buffer and the proteins were resolved by SDS-PAGE. Incorporation of ^32P into histone was determined by phosphorimager analysis.

MLK3 [4] = target: T1, MLK3 (Homo sapiens, UniProt Q16584); experiment: MLK3 kinase assay (immunoprecipitated from treated transfected cells, MBP substrate); format: cell-based
T1 construct: expressed in transfected cells; host or cells: HeLa
T1 sequence (Q16584 whole entry): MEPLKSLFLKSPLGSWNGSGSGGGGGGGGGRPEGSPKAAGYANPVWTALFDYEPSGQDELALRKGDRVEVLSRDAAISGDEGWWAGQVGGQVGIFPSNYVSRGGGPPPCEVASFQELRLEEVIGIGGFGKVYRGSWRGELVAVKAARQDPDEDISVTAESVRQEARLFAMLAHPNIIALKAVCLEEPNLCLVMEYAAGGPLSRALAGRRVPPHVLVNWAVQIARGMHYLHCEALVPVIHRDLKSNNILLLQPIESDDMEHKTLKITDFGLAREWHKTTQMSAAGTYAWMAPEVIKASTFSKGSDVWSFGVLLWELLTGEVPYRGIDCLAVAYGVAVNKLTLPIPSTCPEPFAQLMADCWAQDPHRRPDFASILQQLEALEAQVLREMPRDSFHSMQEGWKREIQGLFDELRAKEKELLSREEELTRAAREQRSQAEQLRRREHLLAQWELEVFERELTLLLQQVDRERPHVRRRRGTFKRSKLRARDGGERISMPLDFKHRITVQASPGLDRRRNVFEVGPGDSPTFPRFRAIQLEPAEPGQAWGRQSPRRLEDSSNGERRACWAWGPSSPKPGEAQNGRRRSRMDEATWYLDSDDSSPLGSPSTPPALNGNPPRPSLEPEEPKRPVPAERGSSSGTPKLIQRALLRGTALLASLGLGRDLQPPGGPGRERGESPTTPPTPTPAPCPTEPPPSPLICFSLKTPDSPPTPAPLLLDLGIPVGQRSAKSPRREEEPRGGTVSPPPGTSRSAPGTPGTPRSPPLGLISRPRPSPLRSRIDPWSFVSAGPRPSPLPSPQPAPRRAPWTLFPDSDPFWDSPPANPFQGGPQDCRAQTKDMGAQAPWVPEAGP
Procedure: Immunoprecipitated MLK3 was incubated for 45 min at 30° C. with kinase buffer containing 10 μCi γ-^32P ATP, 20 μM cold ATP, and 0.5 μg myelin basic protein (MBP) as a substrate. The reaction was quenched with 2×SDS sample buffer, separated by SDS-PAGE and transferred to PVDF membranes (Perkin Elmer, Boston, Mass.). Radioactive phosphate incorporation into MBP and MLK3 were analyzed by phosphorimager (Amersham Biosciences/Molecular Dynamics) and immunoblotting, respectively.

MLK3 [5] = target: T1, MLK3; experiment: MLK3 induced JNK phosphorylation in transfected cells (immunoblot); format: cell-based
Procedure: (§3) HeLa, NIH 3T3, HEK293, A549, or MRC-5 cells were grown in a DMEM supplemented with 10% fetal bovine serum (FBS) and penicillin (100 U/ml) and streptomycin (100 μg/ml). Estrogen receptor (ER) negative breast cancer cells, SUM-159, were obtained from the University of Michigan Human Breast Cancer Cell Lines (SUM-Lines) and grown in DMEM+10% FBS. In some experiments, cells were transfected with cDNA (1 μg) for pEGFP (BD Biosciences/Clontech, Palo Alto, Calif.), hemagglutinin (HA)-tagged MLK3, kinase dead mutant MLK3 (MLK3 K144R), GFP-tagged MLK2 (kindly provided by Dr. Donna Dorow), Flag-tagged DLK, or HA-tagged JNK1 using Lipofectamine® (Invitrogen, Carlsbad, Calif.). Transfected cells were harvested 16-24 hours after transfection.
(§4) For protein analysis, cells were washed twice with cold phosphate buffered saline (PBS), lysed with 300 μl of tissue lysis buffer (TLB) (20 mM Tris-base, pH 7.4, 137 mM NaCl, 2 mM EDTA, 1% Triton X-100, 25 mM β-glycerophosphate, 2 mM sodium pyrophosphate, 10% glycerol, 1 mM sodium orthovanadate, 1 mM phenylmethysulfonyl fluoride (PMSF), and 1 mM benzamidine) and centrifuged at 20,000×g to clarify lysates. Approximately 20 μg of total protein was separated by SDS-PAGE. […] Immunoreactivity was detected by enhanced chemiluminescence (ECL; Amersham, Buckinghamshire, England).

MLK3 [6] = target: T1, MLK3; experiment: MLK3-induced ERK activation in transfected HeLa cells (ppERK immunoblot); format: cell-based; conditions: CEP-11004 500 nM
Procedure: as §3, §4

MKK1 = experiment: Constitutively active MKK1 induced ERK activation in transfected HeLa cells (ppERK immunoblot); format: cell-based; conditions: CEP-11004 500 nM
Procedure: as §3, §4

HeLa cells [7] = experiment: Mitotic index / mitotic stage assay (DAPI) in synchronized HeLa cells; format: cell-based
Procedure: as §2
Cells grown on coverslips were synchronized at the G1/S-phase boundary as described in Examples 4-5. In some cases, MLK3 was co-expressed with the pEGFP vector in order to identify transfected cells. […] At varying times after release, coverslips were fixed and cellular DNA was stained with DAPI. GFP-positive mitotic cells in prophase, prometaphase, metaphase, anaphase, or telophase were identified, counted, and expressed as a fraction of the total cells counted to determine the mitotic index. Within each experiment, 300 to 350 cells were counted for each condition and time point.

histone H3 = experiment: Phospho-histone H3 (serine 10) immunofluorescence in synchronized HeLa cells; format: cell-based
Procedure: as §2
(§5) Cells grown on round glass coverslips in 6-centimeter plates were synchronized at the G1/S-phase boundary using excess thymidine as described in Example 4. At the indicated time after release back into the cell cycle, coverslips were fixed with 4% paraformaldehyde for 8 minutes and permeabilized with 0.1% Triton X-100 in PBS for 2 minutes. Cell staining patterns were confirmed in cells that were fixed and permeabilized with cold methanol for 10 minutes. Cells were stained with antibodies against MLK3, α-tubulin, cyclin B1, phospho-specific histone H3, or p62 nucleoporin followed by incubation with fluorescein or Texas Red conjugated secondary antibodies and counterstaining for cellular DNA with 4′,6-diamidino-2-phenylindole (DAPI, 0.2 μg/ml in PBS). Cells were identified using Nikon E800 Epi-fluorescence microscope (Image Systems, Columbia, Md.) and captured with a Hamamatsu CCD camera. Cell images were processed using IPlab software (Scanalytics, Fairfax, Va.).

HeLa cells [8] = experiment: Mitotic spindle immunostaining (α/γ-tubulin, DAPI) in synchronized HeLa cells; format: cell-based
Procedure: as §2, §5

MLK3 [9] = target: T1, MLK3; conditions: reference 11; cited from earlier work
ERK pathway = conditions: neuronal cells, reported (12); cited from earlier work
[10] = 11 and 13 hours after G1/S-phase release, vs untreated
[11] = 400 nM, added 5 hours after release
[12] = treated at end of S-phase for 4 hours

3,9-bis-[(isopropylthio)methyl]-(8R*,9S*, 11S*)-(−)-9-hydroxy-9-methoxycarbonyl-8-methyl-2,3,9,10-tetrahydro-8,11-epoxy-1H,8H,11H-2,7b,11a-triazadibenzo(a,g)cycloocta(cde)trinden-1-one [CEP-11004]
HeLa cell proliferation (HeLa cells [1]): inhibited
proliferation of NIH 3T3 cells (NIH 3T3 cells): unaffected
A549 colony formation [2]: dose dependent inhibition
cell cycle progression in synchronized HeLa cells (4N DNA) (HeLa cells [3]; added 5 hours after G1/S release, 11 and 13 hours after release): arrest in G2 or M-phase
DNA content by FACS, HeLa cells (HeLa cells [3]; treated for 20 hours, indicative of arrest in G2 or M-phase): accumulated 4N DNA
DNA content by FACS, HEK293 cells (HEK293 cells): accumulated 4N DNA
cyclin B1 expression in synchronized HeLa cells (cyclin B1; [10]): sustained cyclin B1 expression
cyclin B1 levels in mock transfected cells (cyclin B1; 100 or 200 nM CEP-11004, 8 hours): elevated
cyclin B1 levels in MLK3 transfected cells (cyclin B1; 100 or 200 nM, vs mock transfected): lower cyclin B1 levels
Cdc2 kinase activity in synchronized HeLa cells (Cdc2; [10]): elevated Cdc2 kinase activity
Cdc2 activity in mock transfected vs MLK3 transfected cells (Cdc2; 100 or 200 nM CEP-11004): higher Cdc2 activity
expressed MLK3 activity (MBP phosphorylation) (MLK3 [4]; HA-MLK3 in HeLa cells, CEP-11004 500 nM, 4 hours): significantly inhibited
MLK3 activity during G2 and M-phase transitions (MLK3 [4]; data not shown): blocked
inhibition of MLK3 induced JNK1 phosphorylation (MLK3 [5]; 100 nM CEP-11004, HA-MLK3 + HA-JNK1 co-expressed): 80%
MLK3 induced JNK phosphorylation (MLK3 [5]; CEP-11004 500 nM, 4 hours, transfected cells): inhibited MLK3
MLK3-induced ERK activation (MLK3 [6]): inhibited
activity of MKK1 (non-MLK related protein kinase) (MKK1): does not affect
cells in metaphase or anaphase/telophase at 9 hours after G1/S (HeLa cells [7]; [11]): not evident
mitotic stage at 11 hours after G1/S release (HeLa cells [7]; [11]): primarily accumulated in pro-metaphase
pro-metaphase cells at 9 hours after G1/S (HeLa cells [7]; 400 nM, added 5 hours after release, vs untreated): accumulation of pro-metaphase cells
concentrations at which mitotic arrest occurs (HeLa cells [7]; as low as, FIGS. 6A-6C): 100 to 200 nM
percentage of pro-metaphase cells vs concentration (HeLa cells [7]; various concentrations for 8 hours (13 hours after G1/S release)): dose-dependent increase
nuclear pH3 staining during prophase (histone H3; added 5 hours after G1/S release, additional 4 hours): did not contain nuclear pH3 staining
pH3 staining after NEB in pro-metaphase (histone H3; both untreated and treated cells): readily apparent
lowest dose with inhibited pH3 staining in early mitotic cells (histone H3; data not shown): 200 nM
pH3 staining in early mitosis before NEB (histone H3; p62 nucleoporin co-staining): not observed
chromosome organization (DAPI) (HeLa cells [8]; [12]): highly disorganized
microtubule organization (α-tubulin) in mitotic cells (HeLa cells [8]; [12]): significant disruption
mitotic cells with aberrant microtubule organization (HeLa cells [8]; [12]): Greater than 60%
number of spindle poles (γ-tubulin) (HeLa cells [8]; [12]): no effect
microtubules of interphase cells (HeLa cells [8]; treated for 4 hours, data not shown): no apparent effects
specificity towards MLK3 as compared to MLK2 (MLK3 [9]): approximately 3 fold

CCSCc1ccc2c(c1)c1c3c(c4c5cc(CSCC)ccc5n5c4c1n2[C@H]1C[C@](O)(C(=O)OC)[C@]5(C)O1)CNC3=O (relative stereo) [CEP-1347, 3,9-bis[(ethylthio)methyl]-(8R*,9S*,11-S*)-(−)-9-hydroxy-9-methoxycarbonyl-8-methyl 2,3,9,10-tetrahydro-8,11-epoxy-1H,8H, 11H-2,7b,11a-triazadibenzo(a,g)cycloocta(cde)trinden-1-one]
effect on the ERK pathway (ERK pathway): activate the ERK pathway
